Consider one substance from patent US11510980B2, “Brartemicin analogues” (VICTORIA LINK LTD, priority 2017, dated 2022).

One experiment addresses T1, hMincle-Ig (Homo sapiens, UniProt Q9ULY5).
T1 construct: using soluble Mincle-Ig fusion-proteins; made in house
T1 sequence (Q9ULY5 41-219 limits assumed): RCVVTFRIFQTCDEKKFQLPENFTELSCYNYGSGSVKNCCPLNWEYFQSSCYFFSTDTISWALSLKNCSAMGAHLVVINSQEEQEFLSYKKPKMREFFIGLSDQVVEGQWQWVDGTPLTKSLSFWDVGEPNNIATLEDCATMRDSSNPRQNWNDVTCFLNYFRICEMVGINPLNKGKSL
Put plainly: In vitro Mincle binding assay (ELISA) with hMincle-Ig fusion protein. The following applies: plate-coated ligand 0.1 nmol/well. How it is done:
(§1) Preparation of ligand-coated plates: Brartemicin analogues 9a-9i, TDM (Carbosynth, Sigma Aldrich), and TDB^14 were dissolved in CHCl3:MeOH (2:1, 1 mM), diluted in isopropanol ([…]) and added to 96-well plates (20 μL/well). The solvents were evaporated and the coated plates were used immediately.
In vitro Mincle binding assay: The preparation of mMincle- and hMincle-Ig fusion proteins have been previously described. Plate-coated glycolipids 9a-i, TDB, and TDM were incubated with hMincle-Ig, mMincle-Ig, or hIgG1-Fc (Ig) [3 μg/mL in binding buffer (20 mM Tris-HCl, 150 mM NaCl, 1 mM CaCl2), 2 mM MgCl2, pH 7.0)]. Detection of bound protein was achieved via incubation with anti-hIgG-HRP followed by the addition of a colorimetric substrate and measurement of OD at 450 nm. Background was accounted for by subtracting the hIgG1-Fc OD450 values from fusion protein OD450 values
The synthesised brartemicin analogues prepared in Example 1 were first tested for their ability to bind to both human and murine Mincle in an enzyme-linked immunosorbent assay (ELISA) using soluble Mincle-Ig fusion-proteins (FIG. 1a).
A general note: In an ELISA, binding on a coated surface is turned into a signal by an enzyme label.

The target in another experiment is T2, mMincle+FcRγ (Mus musculus, UniProt Q9R0Q8).
T2 construct: expressed in transfected cells; host or cells: 2B4-NFAT-GFP reporter cells
T2 sequence (Q9R0Q8 1-214): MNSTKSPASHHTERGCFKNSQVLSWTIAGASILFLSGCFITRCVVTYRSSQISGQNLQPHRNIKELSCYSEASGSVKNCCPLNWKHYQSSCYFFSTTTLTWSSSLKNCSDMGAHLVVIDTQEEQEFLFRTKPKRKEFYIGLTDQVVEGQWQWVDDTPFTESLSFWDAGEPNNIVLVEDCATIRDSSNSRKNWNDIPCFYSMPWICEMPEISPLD
T2 sequence (P20491 19-86 partner): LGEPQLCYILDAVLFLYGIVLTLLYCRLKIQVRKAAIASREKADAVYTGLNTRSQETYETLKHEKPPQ
Put plainly: 2B4-NFAT-GFP reporter cells expressing mMincle+FcRγ. In kind it is cell-based, murine. The following applies: ligand-coated plates 0.01, 0.1 or 1 nmol/well, 18 hours. The procedure: as §1
2B4-NFAT-GFP reporter cells: 2B4-NFAT-GFP reporter cells expressing mMincle+FcRγ, hMincle+FcRγ, or FcRγ only have been previously described. […] The reporter cells were harvested, stained with propidium iodide, and analysed for NFAT-GFP expression using flow cytometry (FACS Calibur).
To determine whether the Mincle binding observed in Example 1 correlated with cellular activation, nuclear factor of activated T cells (NFAT)-green fluorescent protein (GFP) reporter cells expressing mMincle or hMincle coupled to FcRγ were stimulated using plates coated with TDM, TDB, brartemicin (9i), or analogues 9a-9h.
Activation of the reporter cells was measured through the production of GFP, which was monitored by flow cytometry (FIGS. 1b and 3c).
With the compounds 43a-h in hand, the ability of these analogues to bind and signal through Mincle was assessed (FIG. 5). Accordingly, NFAT-GFP reporter cells expressing mMincle+FcRγ, hMincle+FcRγ, or FcRγ-only were stimulated with the 2G-brartemicin analogues 43a-h, TDB, iPrOH, or the p-OC18H37 substituted analogue, 9f. Reporter cell activation was measured by the production of NFAT-GFP, which was analysed by flow cytometry.

A further experiment deals with C57BL/6 mice. Put plainly: Delayed-type hypersensitivity immunisation with OVA in oil-in-water emulsion. In kind it is in vivo. The following applies: for Th1 immune response / adjuvant activity in vivo: oil-in-water emulsion. The procedure:
Delayed-type hypersensitivity: Mice were sensitised by subcutaneous injection with oil-in-water emulsions (mineral oil/Tween-80/PBS, 9:1:90, v/v/v) containing OVA only (200 μg), OVA+TDB (OVA=200 μg, TDB=0.3 μmol), OVA+9a (OVA=200 μg, 9a=0.3 μmol) or no OVA. After seven days, the mice were challenged with OVA (100 μg/footpad) and after a further seven days, the mice were sacrificed and their spleens harvested. For in vitro restimulation, splenocytes were restimulated with OVA and analysed for spenocyte number (measured at 450 nm after 3 hours, Cell Count Reagent SF, Nacalai Tesque Inc.), IFN-γ production, and IL-17 production. Footpad swelling was measured using a venier caliper pre-challenge, 24 hours post-challenge, and 48 hours post-challenge. Sera were collected from each mouse on days 0, 7, and 14 and analysed for OVA-specific antibody titers by ELISA using HRP coupled goat anti-mouse IgG (GE Health-care), IgG1, IgG2b, IgG2c, and IgG3 (SouthernBiotec). EC50 were defined by plotting the absorbance at 450 nm against log of serum concentration. Antibody titration curves were plotted using GraphPad Prism7 (GraphPad Software).
Compound 9a was then evaluated in vivo to confirm its capacity to induce a Th1 antigen-specific response using a delayed-type hypersensitivity immunisation protocol. To this end, four groups of C57BL/6 mice were immunised by subcutaneous injection with oil-in-water emulsions containing either OVA only, OVA+C18dMeBrar (9a), OVA+TDB, or no OVA. After seven days the mice were challenged with OVA (100 μg per footpad) and after a further seven days, the splenocytes were isolated and restimulated with OVA at three concentrations (10, 30, or 100 μg/mL). The immune response was measured by determining footpad swelling, production of IFN-γ and IL-17 (FIG. 7b), T cell proliferation (FIG. 4a), and antibody titres (FIG. 4c). […] Accordingly, the ability of C18dMeBrar (9a) to lead to an enhanced Th1 immune response was even more striking. This overall immune profile was also reflected in the antibody production by immunised mice. […] A high IgG2c:IgG1 ratio is commonly associated with Th1 responses and a lower ratio is associated with Th2 responses. The production of IgG2c in mice immunised with C18dMeBrar increased three-fold as compared to OVA alone, providing evidence that C18dMeBrar induces a Th1-biased immune response.

[1] abbreviates: s.c. OVA 200 μg + adjuvant 0.3 μmol.

“Also recorded” adds a separate entry of the source.

Turning to “6,6′-Di-O-(2-hydroxy-4-octabenzyloxybenzoyl)-α,α′-D-trehalose [9a]”, at hMincle-Ig, the “binding to hMincle-Ig (ELISA, OD at 450 nm)” value is “good binding”. Further, the “activation of mMincle NFAT-GFP reporter cells (GFP by flow cytometry)” value on mMincle+FcRγ was “strongly activated”. Moreover, the “cell count compared to TDB” value in the experiment with C57BL/6 mice (all concentrations of OVA re-stimulation) was “significant increase in cell count”. In addition, in the experiment on C57BL/6 mice (setting [1]), the “number of splenocytes as compared to OVA alone” value is “significantly larger number of splenocytes” and the “Th1 immune response / adjuvant activity in vivo” value is on record as “potent adjuvant activity in vivo; also recorded: strong Th1 recall response; also recorded: polarised immune response with a distinct Th1 profile”. Also, the “Th1 immune response / adjuvant activity in vivo” value with C57BL/6 mice (s.c. OVA 200 μg + adjuvant 0.3 μmol, listed as C18dMeBrar) was “stronger Th1 immune response”. In the experiment with C57BL/6 mice (s.c. OVA 200 μg + adjuvant 0.3 μmol, OVA challenge 100 μg/footpad), the footpad swelling result is “neither 9a nor TDB induced any”. In the experiment on C57BL/6 mice (s.c. OVA 200 μg + adjuvant 0.3 μmol, restimulation 10, 30 or 100 μg/mL OVA), the “IL-17 production by splenocytes restimulated with OVA” value was “neither 9a nor TDB induced any”. The “antigen specific IFN-γ production, re-stimulating with 100 μg/mL of antigen” value in the experiment on C57BL/6 mice (s.c. OVA 200 μg + adjuvant 0.3 μmol, splenocytes restimulated with 100 μg/mL OVA) was “significantly enhanced cytokine production”. The “antigen specific IFN-γ production, all concentrations of OVA” value in the experiment with C57BL/6 mice (s.c. OVA 200 μg + adjuvant 0.3 μmol, splenocytes restimulated with 10, 30 or 100 μg/mL OVA) is reported as “trend towards increased”. For the same substance, in the experiment with C57BL/6 mice (serum, ELISA), the IgG1 antibody production result is “showed increases”, the IgG2b antibody production entry is on record as “showed increases”, the IgG2c antibody production entry is listed as “showed increases” and the “production of IgG2c as compared to OVA alone” value is “three-fold”. Besides, the “production of OVA-specific IgG antibodies” value in the experiment on C57BL/6 mice (serum, ELISA) is given as “elevated the production of IgG antibodies”. Besides, the “production of OVA-specific IgG antibodies” value with C57BL/6 mice (serum, ELISA, listed as C18dMeBrar) is “only significant for C18dMeBrar”.
